{"source": "patent US20070148262A1", "about": "(priority 2005, published 2007)", "key": {"[1]": {"test_system": "Salmonella cholerasuis", "assay": "comparison of antibacterial effects: Green-zone A vs malic acid and grapefruit seed extract", "assay_type": "cell-based", "parameters": "key: NBD: No Bacteria Detected; BD: Bacteria Detected", "settings": "5% organic matter dilution (yeast extract, hard water)", "procedure": "The antibacterial effect of Green-zone A prepared in Example 1 was compared to the effect of each of malic acid and grapefruit seed extract alone.\nA bacterial strain used in the test of antibacterial activity was Salmonella cholerasuis. The Salmonella strain was cultured in nutrient medium at 37° C. for 24 hours and used at a concentration of 5×10^8 cells/ml of the nutrient medium.\nGreen-zone A prepared in Example 1 was undiluted and diluted 2-fold and 5-fold with hard water. Meanwhile, a composition of 50 g malic acid completely dissolved in 200 ml of purified water, and a composition of 6 g grapefruit seed extract completely dissolved in 200 ml of distilled water, were undiluted and diluted 2-fold and 5-fold.\n4 ml of the prepared Salmonella strain was mixed with 96 ml of 5% organic matter dilution (4° C., 5% yeast extract, pH 7.0, diluted with hard water). 2.5 ml of the mixture solution was taken and allowed to react at 4° C. for 30 minutes.\nAfter completion of the reaction, 1 ml of the bacterial dilution was added and mixed with 9 ml of neutralizing medium (containing 5% horse serum inactivated in nutrient medium) at 37° C. Then, the mixture was added into test tubes containing 0.1 ml of each of nutrient media, and was proliferated in an incubator at 37° C. for 48 hours.\nAfter completion of the proliferation, the […] was re-inoculated into blood medium and measured for the bactericidal activity of each of the compositions (Table 15)."}, "[2]": {"test_system": "avian influenza viruses (AIV) (field isolate No. 02-8, virus strain K228)", "assay_type": "cell-based"}}}
{"smiles": "O=C(O)CC(O)C(=O)O", "note": "(stereo not shown) [Malic acid, malic acid]", "values": [{"measurement": "bactericidal activity", "setting": "[1]; Original solution", "value": "NBD"}, {"measurement": "bactericidal activity", "setting": "[1]; dilution 1:2", "value": "BD"}, {"measurement": "bactericidal activity", "setting": "[1]; dilution 1:5", "value": "BD"}, {"measurement": "disinfectant effects up to dilutions of", "setting": "[2]", "value": "no disinfectant effects"}]}
